According to the supplement of paper PMC7455731:

Experiment: collision cross section (DTIM-MS, N2); higher = larger ion
Protocol: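 Collision cross section (CCS) of drug and natural-product chemical standards (validation set 2, measured in this paper). Three independent measurements were made across 2 months; the value taken is their mean (avg_ccs), for the ion adduct given.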

| Compound | collision cross section (ion adduct: [M+H]+) [Å²] | collision cross section (ion adduct: [M-H]-) [Å²] |
| --- | --- | --- |
| C=C1C(=O)O[C@H]2[C@H]1CC/C(C)=C\CC[C@@]1(C)O[C@@H]21 [Parthenolide] | 154.23 | – |
| C=C(C)C1CC=C(C=NO)CC1 (stereo not given) [Perillartine] | 138.73 | – |
| c1ccc2c(c1)Nc1ccccc1S2 [Phenothiazine] | – | 140.54 |
| O=C(CCc1ccc(O)cc1)c1c(O)cc(O)cc1O[C@@H]1O[C@H](CO)[C@@H](O)[C@H](O)[C@H]1O [Phlorizin] | – | 193.11 |
| C[C@@H]1C/C=C/C=C/C=C/C=C/[C@H](O[C@@H]2O[C@H](C)[C@@H](O)[C@H](N)[C@@H]2O)C[C@@H]2O[C@](O)(C[C@@H](O)C[C@H]3O[C@@H]3/C=C/C(=O)O1)C[C@H](O)[C@H]2C(=O)O [Pimaricin] | 261.06 | 262.32 |
| O=C1C[C@@H](c2ccccc2)Oc2cc(O)cc(O)c21 [Pinocembrin] | 157.96 | 159.74 |
| COc1cc(O)cc(/C=C/c2ccc(O)cc2)c1 [Pinostilbene] | 160.07 | 166.26 |
| O=C(/C=C/C=C/c1ccc2c(c1)OCO2)N1CCCCC1 [Piperine] | 177.2 | – |
| COc1cc(/C=C/C(=O)N2CCC=CC2=O)cc(OC)c1OC [Piperlongumine] | 179.46 | – |
| C[C@]12C=CC(=O)C=C1CC[C@@H]1[C@@H]2C(=O)C[C@@]2(C)[C@H]1CC[C@]2(O)C(=O)CO [Prednisone] | 185.04 | 191.16 |
| CO[C@H]1C=CO[C@@]2(C)Oc3c(C)c(O)c4c(O)c(c(/C=N/N5CCN(C)CC5)c(O)c4c3C2=O)NC(=O)/C(C)=C\C=C/[C@H](C)[C@H](O)[C@@H](C)[C@@H](O)[C@@H](C)[C@H](OC(C)=O)[C@@H]1C [Rifampicin] | 284.23 | 284.94 |
| C=C(C)[C@H]1Cc2c(ccc3c2O[C@@H]2COc4cc(OC)c(OC)cc4[C@@H]2C3=O)O1 [Rotenone] | 195.49 | 198.71 |
| NC(=O)c1ccccc1O [Salicylamide] | 124.71 | 122.43 |
| O=C(O)c1ccccc1O [Salicylic acid] | – | 121.24 |
| COc1ccc(-c2cc(=O)c3c(O)cc(O)c(-c4cc(-c5cc(=O)c6c(O)cc(OC)cc6o5)ccc4OC)c3o2)cc1 [Sciadopitysin] | 235.37 | 235.5 |
| C=C[C@](C)(O)CC[C@@H]1[C@@]2(C)CCCC(C)(C)[C@@H]2CC[C@@]1(C)O [Sclareol] | – | 178.93 |
| C=C[C@H]1[C@H](O[C@@H]2O[C@H](CO)[C@@H](O)[C@H](O)[C@H]2O)OC=C(C(=O)OC)[C@H]1CC(=O)O [Secoxyloganin] | – | 190.5 |
| CC(C)=CCCC1(C)CCC2(C)C3CCC4(C)C(C)C(=O)CCC4C3(C)CCC2(C)C1 (stereo not given) [Shionone] | 211.34 | – |
| COc1cc([C@H]2Oc3cc([C@H]4Oc5cc(O)cc(O)c5C(=O)[C@@H]4O)ccc3O[C@@H]2CO)ccc1O [Silybin] | 208.54 | 204.63 |
| CCC(C)(C)C(=O)O[C@H]1C[C@@H](C)C=C2C=C[C@H](C)[C@H](CC[C@@H]3C[C@@H](O)CC(=O)O3)[C@H]21 [Simvastatin] | 207.6 | 205.74 |
| COc1cc2oc(-c3ccc(O)cc3)cc(=O)c2c(O)c1C1OC(CO)C(O)C(O)C1OC1OC(CO)C(O)C(O)C1O (stereo not given) [Spinosin] | 235.99 | 239.41 |
| Nc1ccc(S(=O)(=O)[N-]c2cnc3ccccc3n2)cc1.[Na+] [Sulfaquinoxaline sodium] | 184.69 | – |
| Cc1noc(NS(=O)(=O)c2ccc(N)cc2)c1C [Sulfisoxazole] | 162.69 | 162.87 |
